Measured values: patent US11547681B2, “N-acylethanolamide derivatives and uses thereof” (ELIEM THERAPEUTICS, INC., priority 2016, dated 2023)

Test: in vitro
Details: for Concentration (μM) of analyte PEA, 0 min / Concentration (μM) of analyte PEA, 10 min / Concentration (μM) of analyte PEA, 20 min / Concentration (μM) of analyte PEA, 30 min / Concentration (μM) of analyte PEA, 60 min / % Remaining of Initial (n = 1), 0 min / % Remaining of Initial (n = 1), 10 min / % Remaining of Initial (n = 1), 20 min / % Remaining of Initial (n = 1), 30 min / % Remaining of Initial (n = 1), 60 min: 1 μM; for % Remaining of Initial (n = 1), 0 min: s9, 0 h; for % Remaining of Initial (n = 1), 10 min: s9, 10 min; for % Remaining of Initial (n = 1), 20 min: s9, 20 min; for % Remaining of Initial (n = 1), 30 min: s9, 0.5 h; for % Remaining of Initial (n = 1), 60 min: s9, 1 h; for half-life at 1 μM: s9, Half-life (min)
Method: Reaction mixture, minus cofactors, was prepared as described below. Test article was added into the reaction mixture at a final concentration of 1 μM. […] An aliquot of the reaction mixture (without cofactor cocktail) was equilibrated in a shaking water bath at 37° C. for 3 minutes. The reaction was initiated by the addition of cofactor cocktail (see below), and the mixture was then incubated in a shaking water bath at 37° C. Aliquots (100 μL) were withdrawn 0, 10, 20, 30 and 60 minutes. Test article samples were immediately combined with 300 μL of ice-cold acetonitrile containing 1% formic acid. Control samples were immediately combined with 400 μL of ice-cold 50/50 acetonitrile (ACN)/dH2O containing 0.1% formic acid and internal standard to terminate the reaction. Samples were then mixed and centrifuged to precipitate proteins. Calibration standards were prepared in matched matrix. Samples and standards were assayed by LC-MS/MS using electrospray ionization for both the dosed prodrug and the expected drug (PEA). Analytical conditions are outlined in Appendix 8-1. Test article concentration at each time point was compared to the test article concentration at time 0 to determine the percent remaining at each time point. Half-lives were calculated using GraphPad software, fitting to a single-phase exponential decay equation.
Reaction mixture, minus cofactors, was prepared as described below. Test article was added into the reaction mixture at a final concentration of 1 μM. […] An aliquot of the reaction mixture (without cofactor cocktail) was equilibrated in a shaking water bath at 37° C. for 5 minutes. Reaction was initiated by the addition of cofactor cocktail (see below), and mixture was then incubated in a shaking water bath at 37° C. Aliquots (100 μL) were withdrawn at 0, 10, 20, 30, and 60 minutes. Test article samples were immediately combined with 300 μL of ice-cold acetonitrile containing 1% formic acid. Control samples were immediately combined with 400 μL of ice-cold 50/50 acetonitrile (ACN)/dH2O containing 0.1% formic acid and internal standard to terminate the reaction. Samples were then mixed and centrifuged to precipitate proteins. Calibration standards were prepared in matched matrix. Samples and standards were assayed by LC-MS/MS using electrospray ionization for both dosed prodrug and expected drug (PEA). Analytical conditions are outlined in Appendix 10-1. Test article concentration at each time point was compared to test article concentration at time 0 to determine the percent remaining at each time point. Half-lives were calculated using GraphPad software, fitting to a single-phase exponential decay equation.
The reaction mixture, minus cofactors, was prepared as described below. Test article was added into the reaction mixture at a final concentration of 1 μM. […] An aliquot of the reaction mixture (without cofactor cocktail) was equilibrated in a shaking water bath at 37° C. for 3 minutes. Reaction was initiated by the addition of cofactor cocktail (see below), and the mixture was then incubated in a shaking water bath at 37° C. Aliquots (100 μL) were withdrawn at 0, 10, 20, 30, and 60 minutes. Test article samples were immediately combined with 300 μL of ice-cold acetonitrile containing 1% formic acid. Control samples were immediately combined with 400 μL of ice-cold 50/50 acetonitrile (ACN)/dH2O containing 0.1% formic acid and internal standard to terminate the reaction. Samples were then mixed and centrifuged to precipitate proteins. Calibration standards were prepared in matched matrix. Samples and standards were assayed by LC-MS/MS using electrospray ionization for both dosed prodrug and expected drug (PEA). Analytical conditions are outlined in Appendix 13-1. Test article concentration at each time point was compared to the test article concentration at time 0 to determine the percent remaining at each time point.

Concentration (μM) of analyte PEA, 0 min (both, human): 0.20 µM
Concentration (μM) of analyte PEA, 10 min (both, human): 0.23 µM
Concentration (μM) of analyte PEA, 20 min (both, human): 0.18 µM
Concentration (μM) of analyte PEA, 30 min (both, human): 0.096 µM
Concentration (μM) of analyte PEA, 60 min (both, human): 0.033 µM
% Remaining of Initial (n = 1), 0 min (both, human): 100%
% Remaining of Initial (n = 1), 10 min (both, human): 6.0%
% Remaining of Initial (n = 1), 20 min (both, human): 1.3%
% Remaining of Initial (n = 1), 30 min (both, human): <1.0%
% Remaining of Initial (n = 1), 60 min (both, human): <1.0%
Concentration (μM) of analyte PEA, 0 min (male, Beagle, dog): 0.23 µM
Concentration (μM) of analyte PEA, 10 min (male, Beagle, dog): 0.38 µM
Concentration (μM) of analyte PEA, 20 min (male, Beagle, dog): 0.35 µM
Concentration (μM) of analyte PEA, 30 min (male, Beagle, dog): 0.21 µM
Concentration (μM) of analyte PEA, 60 min (male, Beagle, dog): 0.11 µM
% Remaining of Initial (n = 1), 0 min (male, Beagle, dog): 100%
% Remaining of Initial (n = 1), 10 min (male, Beagle, dog): 5.1%
% Remaining of Initial (n = 1), 20 min (male, Beagle, dog): 2.0%
% Remaining of Initial (n = 1), 30 min (male, Beagle, dog): <1.0%
% Remaining of Initial (n = 1), 60 min (male, Beagle, dog): <1.0%
Concentration (μM) of analyte PEA, 0 min (male, CD-1, mouse): 0.51 µM
Concentration (μM) of analyte PEA, 10 min (male, CD-1, mouse): 0.26 µM
Concentration (μM) of analyte PEA, 20 min (male, CD-1, mouse): 0.19 µM
Concentration (μM) of analyte PEA, 30 min (male, CD-1, mouse): 0.12 µM
Concentration (μM) of analyte PEA, 60 min (male, CD-1, mouse): 0.022 µM
% Remaining of Initial (n = 1), 0 min (male, CD-1, mouse): 100%
% Remaining of Initial (n = 1), 10 min (male, CD-1, mouse): <1.0%
% Remaining of Initial (n = 1), 20 min (male, CD-1, mouse): <1.0%
% Remaining of Initial (n = 1), 30 min (male, CD-1, mouse): <1.0%
% Remaining of Initial (n = 1), 60 min (male, CD-1, mouse): <1.0%
half-life at 1 μM (male, CD-1, mouse): < 1 min
Concentration (μM) of analyte PEA, 0 min (male, Sprague-Dawley, rat): 0.50 µM
Concentration (μM) of analyte PEA, 10 min (male, Sprague-Dawley, rat): 0.31 µM
Concentration (μM) of analyte PEA, 20 min (male, Sprague-Dawley, rat): 0.17 µM
Concentration (μM) of analyte PEA, 30 min (male, Sprague-Dawley, rat): 0.11 µM
Concentration (μM) of analyte PEA, 60 min (male, Sprague-Dawley, rat): 0.023 µM
% Remaining of Initial (n = 1), 0 min (male, Sprague-Dawley, rat): 100%
% Remaining of Initial (n = 1), 10 min (male, Sprague-Dawley, rat): <1.0%
% Remaining of Initial (n = 1), 20 min (male, Sprague-Dawley, rat): <1.0%
% Remaining of Initial (n = 1), 30 min (male, Sprague-Dawley, rat): <1.0%
% Remaining of Initial (n = 1), 60 min (male, Sprague-Dawley, rat): <1.0%
half-life at 1 μM (male, Sprague-Dawley, rat): < 1 min
SMILES: CCCCCCCCCCCCCCCC(=O)NCCOC(=O)CCC [Compound I-2]
